Results from the supplement of paper PMC10307832.

Key:
Assay in all cases: relative viability (nuclei count vs DMSO), 5 days (fraction); higher = more cells survive
[1] = compound: CN1CCN(CC1)C2=CC(=C(C=C2)NC3=NC=C4C(=N3)N(C5=CC=CC=C5C(=O)N4C)C)OC [XMD8-85] + Cc1nc(NC(=O)N2CCC[C@H]2C(N)=O)sc1-c1ccnc(C(C)(C)C(F)(F)F)c1 [Alpelisib] (partner 2 µM)
Outline: (§1)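 One day after seeding in 1536-well plates, lung cancer cell lines were dosed by pin tool. Dosing was either single-drug or a fixed anchor-drug dose plus five library-drug doses (not always all listed) in √10 steps. After 5 days, nuclei were stained in one fix-and-stain step and counted on 4× images, and relative viability is the nuclei count of treated wells over that of vehicle wells, given as the median of duplicate plates.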

[2] = compound: CN1CCN(CC1)C2=CC(=C(C=C2)NC3=NC=C4C(=N3)N(C5=CC=CC=C5C(=O)N4C)C)OC [XMD8-85] + Cc1nc(Nc2ncc(C(=O)Nc3c(C)cccc3Cl)s2)cc(N2CCN(CCO)CC2)n1 [Dasatinib] (partner 0.075 µM)
Outline: as §1

[3] = compound: O=C(O)C(Cc1ccccc1[N+](=O)[O-])=NNc1nc(-c2ccc(Cl)c(Cl)c2)cs1 (mixture of isomers) [4EGI-1] + COc1cc2c(Oc3ccc(NC(=O)C4(C(=O)Nc5ccc(F)cc5)CC4)cc3F)ccnc2cc1OCCCN1CCOCC1 [Foretinib] (partner 0.25 µM)
Outline: as §1

[4] = compound: O=C(O)C(Cc1ccccc1[N+](=O)[O-])=NNc1nc(-c2ccc(Cl)c(Cl)c2)cs1 (mixture of isomers) [4EGI-1] + C[C@@H](Oc1cc(-c2cnn(C3CCNCC3)c2)cnc1N)c1c(Cl)ccc(F)c1Cl [Crizotinib] (partner 1 µM)
Outline: as §1

| Cell Line | relative viability ([1]; first compound 0.08 µM) | relative viability ([1]; first compound 0.253 µM) | relative viability ([1]; first compound 0.8 µM) | relative viability ([1]; first compound 2.53 µM) | relative viability ([1]; first compound 8 µM) | relative viability ([2]; first compound 0.08 µM) | relative viability ([2]; first compound 0.253 µM) | relative viability ([2]; first compound 0.8 µM) | relative viability ([2]; first compound 2.53 µM) | relative viability ([2]; first compound 8 µM) | relative viability ([3]; first compound 0.5 µM) | relative viability ([3]; first compound 1.581 µM) | relative viability ([3]; first compound 5 µM) | relative viability ([3]; first compound 15.81 µM) | relative viability ([3]; first compound 50 µM) | relative viability ([4]; first compound 0.5 µM) | relative viability ([4]; first compound 1.581 µM) | relative viability ([4]; first compound 5 µM) | relative viability ([4]; first compound 15.81 µM) | relative viability ([4]; first compound 50 µM) |
| --- | --- | --- | --- | --- | --- | --- | --- | --- | --- | --- | --- | --- | --- | --- | --- | --- | --- | --- | --- | --- |
| A-427 | 1.09 | 1.13 | 1.1 | 1.11 | 1 | 0.734 | 0.717 | 0.749 | 0.797 | 0.618 | 1.16 | 0.944 | 0.983 | 0.867 | 0.646 | 1.02 | 0.728 | 0.791 | 0.822 | 0.424 |
| NCI-H1734 | 0.652 | 0.678 | 0.745 | 0.658 | 0.576 | 0.463 | 0.491 | 0.453 | 0.574 | 0.499 | 1.02 | 0.803 | 0.971 | 0.827 | 0.472 | 0.817 | 0.695 | 0.72 | 0.605 | 0.437 |
| PC-3 [JPC-3] | 1.02 | 1.05 | 1.06 | 1.01 | 1.01 | 0.889 | 0.932 | 0.939 | 1.14 | 0.997 | 1.09 | 0.984 | 0.967 | – | 0.463 | 0.998 | 0.883 | 0.876 | – | 0.55 |
| LCLC-97TM1 | 0.294 | 0.238 | 0.293 | 0.263 | 0.36 | – | 0.813 | 0.856 | 1.01 | 0.87 | 0.926 | 0.725 | 0.941 | 0.936 | 0.127 | 0.445 | – | 0.397 | 0.302 | 0.172 |
| HCC-366 | 0.532 | 0.573 | 0.42 | 0.373 | 0.273 | 0.552 | 0.828 | 0.642 | 0.74 | 0.601 | 0.972 | 0.701 | 0.905 | 0.985 | 0.308 | 0.641 | 0.277 | 0.605 | 0.506 | 0.529 |
| COR-L23 | 0.882 | 0.887 | 0.742 | 0.712 | 0.506 | 0.516 | 0.502 | 0.555 | 0.63 | 0.347 | 1.08 | 0.728 | 0.98 | 0.736 | 0.29 | 0.687 | 0.412 | 0.64 | 0.521 | 0.141 |
| LOU-NH91 | 0.681 | 0.758 | 0.726 | 0.711 | 0.616 | 0.553 | 0.555 | 0.573 | 0.571 | 0.459 | 0.944 | – | 0.995 | 0.545 | 0.906 | 0.788 | – | 0.72 | 0.508 | 0.55 |
| NCI-H441 | 0.837 | 1.03 | 0.693 | 0.714 | 0.698 | 0.42 | 0.576 | 0.728 | 0.715 | 0.516 | 0.909 | 0.929 | 1.01 | 0.882 | 0.447 | 0.968 | 0.472 | 0.72 | 0.461 | 0.213 |
| NCI-H2405 | 0.812 | 0.818 | 0.833 | 0.539 | 0.568 | 0.206 | 0.206 | 0.221 | 0.198 | 0.177 | 1.06 | 1 | 1.13 | 1.13 | 1.02 | 0.865 | 0.747 | 0.909 | 0.896 | 0.854 |
| SK-LU-1 | 0.924 | 1.07 | 1.08 | 1.01 | 0.855 | 0.135 | 0.183 | 0.208 | 0.172 | 0.179 | 0.956 | 0.829 | 0.841 | 0.746 | 0.284 | 0.891 | 1.05 | 0.943 | 0.688 | 0.334 |
| NCI-H838 | 0.983 | 1.03 | 1.09 | 1.01 | 0.446 | 0.397 | 0.277 | 0.281 | 0.28 | 0.191 | 1.03 | – | 1.13 | 1.04 | 0.369 | 0.843 | – | 0.905 | 0.706 | 0.378 |
| HCC-15 | 0.934 | 0.851 | 0.997 | 0.894 | 0.661 | 0.576 | 0.632 | 0.614 | 0.656 | 0.417 | 1.07 | – | 1.11 | 0.94 | 0.481 | 0.831 | 0.893 | 0.858 | 0.776 | 0.598 |
| EPLC-272H | – | 0.916 | 0.93 | 1.01 | 0.624 | 0.33 | 0.253 | 0.4 | 0.501 | 0.25 | 0.721 | – | 0.735 | 1.26 | 0.132 | 0.929 | 0.505 | 1.03 | 0.94 | 0.947 |
| NCI-H1755 | 0.981 | 0.949 | 0.954 | 1.04 | 0.896 | 0.409 | 0.432 | 0.434 | 0.482 | 0.353 | 0.953 | 0.854 | 0.872 | 0.815 | 0.704 | 0.854 | 0.824 | 0.875 | 0.836 | 0.318 |
| EMC-BAC-2 | 0.74 | 0.739 | 0.752 | 0.733 | 0.72 | 0.309 | 0.341 | 0.337 | 0.347 | 0.39 | 1.2 | 0.907 | 1.04 | 0.936 | 0.984 | 0.776 | 0.594 | 0.706 | 0.627 | 0.306 |
